Our source for the IC50 values is patent US7855205B2, “Pyrimidinyl substituted fused-pyrrolyl compounds useful in treating kinase disorders” (Janssen Pharmaceutica NV, priority 2004, dated 2010).

Experiment [1] has as its target T1, CDK1:Cyclin-B (Homo sapiens, UniProt P06493).
T1 construct: purchased New England Biolabs, Beverly, Mass; 6020; host or cells: insect cells
Description: CDK1 Screening Assay. It is filed as biochemical. The conditions noted are these: 33P-γ-ATP incorporation, 10 μM ATP. As for the experimental part: (§1) A kinase reaction mixture was prepared containing 50 mM Tris-HCl pH=8, 10 mM MgCl2, 0.1 mM […], 1 mM DTT, 10 μM ATP, 0.025 μM biotinylated histone-HI peptide substrate and […] per well ^33P-γ-ATP (2000-3000 Ci/mmol). 70 μL of the kinase reaction mixture was dispensed into the well of a streptavidin coated FlashPlate™ (Cat. # SMP103, NEN, Boston, Mass.). Then 1 μL of test compound stock in 100% DMSO was added to the wells resulting in a final concentration of 1% DMSO in the reaction with a 100 μL final reaction volume.
(§2) The CDK1:Cyclin-B protein was then diluted in 50 mM Tris-HCl pH=8.0, 0.1% BSA at a concentration of 1 ng per μL and 30 μL (30 ng enzyme per test well) was added to each well to initiate the reaction. The reaction was incubated for one hour at 30° C. At the end of the 1 h incubation, the reaction was terminated by aspirating the mixture from the plate and washing the wells twice with PBS containing 100 mM EDTA. The histone-H1 biotinylated peptide substrate became immobilized on the Flashplate™ and the incorporation of ^33P-γ-ATP was measured by reading the plate on a scintillation counter. Inhibition of the enzymatic activity of CDK1 was measured by observing a reduced amount of ^33P-γ-ATP incorporated into the immobilized peptide.
The CDK1 used was isolated from insect cells expressing both the human CDK1 catalytic subunit and its positive regulatory subunit cyclin B (New England Biolabs, Beverly, Mass., Cat. #6020).
(§3) • VEGF-R2, HER2 and (Biotin)[…]-Amide • RET kinases • CDK1 (Biotin)[…]-Amide • Aurora-A kinase Biotin-[…]-Amide

For experiment [2], the target named is T2, VEGF-R2 (Rattus norvegicus, UniProt O08775).
T2 construct: polyhistidine (N)
Description: VEGF-R2 Screening Assay. The conditions noted are these: 33P-γ-ATP incorporation, 10 μM ATP. It is filed as biochemical. As for the experimental part:
as §2, with “Then 1 μL of test compound stock in 100% DMSO was added to the wells resulting in a final concentration of 1% DMSO in the reaction with a 100 μL final reaction volume. The CDK1:Cyclin-B” for “The CDK1:Cyclin-B”, “immobilized peptide. The VEGF-R kinase assay was carried out using the CDK kinase assay procedure except that the enzyme was replaced with the VEGF-R2 fusion protein containing a polyhistidine tag at the N-terminus followed by amino acids 786-1343 of the rat VEGF-R2 kinase domain (GenBank Accession #U93306).” for “immobilized peptide.”

Experiment [3] has as its target T3, Aurora-A (Mus musculus, UniProt P97477).
T3 construct: made in house; host or cells: sf9 insect cells
T3 sequence (P97477 1-395): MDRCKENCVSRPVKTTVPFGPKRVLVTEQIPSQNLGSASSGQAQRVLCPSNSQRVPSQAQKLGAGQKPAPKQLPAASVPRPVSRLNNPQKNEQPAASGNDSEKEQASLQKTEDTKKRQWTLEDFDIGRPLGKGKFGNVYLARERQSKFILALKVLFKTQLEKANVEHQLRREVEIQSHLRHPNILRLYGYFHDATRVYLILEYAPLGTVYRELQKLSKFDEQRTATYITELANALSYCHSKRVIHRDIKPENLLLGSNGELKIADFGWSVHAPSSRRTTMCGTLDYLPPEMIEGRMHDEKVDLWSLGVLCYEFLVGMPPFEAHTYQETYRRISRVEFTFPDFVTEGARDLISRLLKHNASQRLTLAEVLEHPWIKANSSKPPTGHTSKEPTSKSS
Description: Aurora-A Screening Assay. It is filed as biochemical, murine. The conditions noted are these: 33P-γ-ATP incorporation, 10 μM ATP. As to the method: as §1, §2
The Aurora-A kinase assay was carried out using the CDK kinase assay procedure except that the enzyme was replaced with the full length protein encoding the murine Aurora-A (Accession# GB BC014711) expressed and purified from sf9 insect cells.
as §3

The test system of experiment [4] is HeLa cervical adenocarcinoma. The experiment in a line: Inhibition of cell proliferation (14C-thymidine incorporation), HeLa.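 Further: HeLa cells in 96-well scintillating plates, compound for 24 h then 24 h more with 14C-thymidine, counting label built into new DNA against DMSO-only control wells.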 Conditions: Homo sapiens. In kind it is cell-based.
The test system of experiment [5] is HCT-116 colon carcinoma. Description: Inhibition of cell proliferation (14C-thymidine incorporation), HCT-116. In kind it is cell-based. Conditions: Homo sapiens, HCT-116, HCT116. As to the method:
(§4) The ability of a test compound to inhibit the proliferation of cell growth was determined by measuring incorporation of ^14C-labelled thymidine into newly synthesized DNA within the cells. This method was used on cell lines derived from carcinomas originating from several tissues such as HeLa cervical adenocarcinoma (American Type Culture Collection (ATCC), Virginia, Cat. #CCL-2), A375 malignant melanoma (ATCC CRL-1619), HCT-116 colon carcinoma (CCL-247). In this way the effect of a compound on cell growth of cells with many different phenotypes can be determined. Cells were trypsinized and counted and 3000-8000 cells were added to each well of a 96-well CytoStar tissue culture treated scintillating microplate (Amersham #RPNQ0160) in complete medium in a volume of 100 μL. Cells were incubated for 24 hours in complete medium at 37° C. in an atmosphere containing 5% CO2.
(§5) Next, 1 μL of test compound in 100% DMSO was added to the wells of the plate. DMSO only was added to control wells. Cells were incubated for 24 more hours in complete medium at 37° C. in an atmosphere containing 5% CO2. Methyl ^14C-thymidine 56 mCi/mmol (NEN #NEC568 or Amersham #CFA532) was diluted in complete medium and 0.2 uCi/well was added to each well of the CytoStar plate in a volume of 20 μl. The plate was incubated for 24 hours at 37° C. plus 5% CO2 in drug plus ^14C-thymidine. The contents of the plate discarded into a ^14C radioactive waste container by inverting the plate and the plate was washed twice with 200 μL PBS.
(§6) 200 μL of PBS is added to each well. The top of the plate was sealed with a transparent plate sealer and a white plate backing sealer (Packard #6005199) was applied to the bottom of the plate. The degree of methyl ^14C-thymidine incorporation was quantified on a Packard Top Count.
(In general: Incorporation of labelled thymidine or its analogues reports DNA synthesis.)

Experiment [6] has as its system A375 malignant melanoma. Description: Inhibition of cell proliferation (14C-thymidine incorporation), A375. The conditions noted are these: Homo sapiens, A-375. In kind it is cell-based, human. As for the experimental part: as §4, §5, §6

T2 sequence (O08775 786-1343): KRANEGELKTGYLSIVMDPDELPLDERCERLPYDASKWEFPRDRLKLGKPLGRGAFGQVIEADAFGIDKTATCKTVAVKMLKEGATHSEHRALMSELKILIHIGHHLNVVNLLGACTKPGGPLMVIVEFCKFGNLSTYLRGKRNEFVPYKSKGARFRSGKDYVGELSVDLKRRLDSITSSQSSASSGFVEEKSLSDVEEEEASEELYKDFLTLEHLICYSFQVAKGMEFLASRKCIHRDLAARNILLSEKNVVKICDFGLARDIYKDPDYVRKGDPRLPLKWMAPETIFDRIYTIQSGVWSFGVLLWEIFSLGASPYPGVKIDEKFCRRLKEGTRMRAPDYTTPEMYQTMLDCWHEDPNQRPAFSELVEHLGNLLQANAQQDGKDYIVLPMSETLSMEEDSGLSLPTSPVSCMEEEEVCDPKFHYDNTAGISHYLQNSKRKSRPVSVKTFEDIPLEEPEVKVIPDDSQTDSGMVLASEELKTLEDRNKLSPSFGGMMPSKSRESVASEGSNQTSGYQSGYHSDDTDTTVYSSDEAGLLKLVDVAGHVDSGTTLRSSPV
T1 sequence (P06493 whole entry): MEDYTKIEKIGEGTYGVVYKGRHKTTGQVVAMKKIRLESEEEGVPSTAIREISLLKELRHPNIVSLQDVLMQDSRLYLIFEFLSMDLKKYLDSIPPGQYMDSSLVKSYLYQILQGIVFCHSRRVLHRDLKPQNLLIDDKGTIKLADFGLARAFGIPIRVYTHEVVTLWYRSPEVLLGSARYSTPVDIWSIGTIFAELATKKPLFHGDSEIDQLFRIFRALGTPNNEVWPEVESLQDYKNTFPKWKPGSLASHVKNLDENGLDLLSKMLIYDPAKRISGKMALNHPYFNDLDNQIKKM
T1 sequence (P14635 whole entry partner): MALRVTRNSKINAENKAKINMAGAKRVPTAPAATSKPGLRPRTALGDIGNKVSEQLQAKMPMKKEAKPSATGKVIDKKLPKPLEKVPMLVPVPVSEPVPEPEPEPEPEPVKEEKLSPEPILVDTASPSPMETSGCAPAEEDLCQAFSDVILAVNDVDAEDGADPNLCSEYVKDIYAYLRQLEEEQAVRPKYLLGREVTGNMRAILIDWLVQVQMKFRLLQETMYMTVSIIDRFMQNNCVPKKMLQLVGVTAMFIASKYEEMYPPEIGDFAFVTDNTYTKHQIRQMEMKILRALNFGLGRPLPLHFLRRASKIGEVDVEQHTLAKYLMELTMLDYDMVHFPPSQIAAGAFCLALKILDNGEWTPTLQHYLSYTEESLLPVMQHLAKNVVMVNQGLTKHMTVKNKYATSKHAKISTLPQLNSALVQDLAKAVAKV

In the case of `c1cnc2[nH]cc(-c3ccnc(NCC4CCCCC4)n3)c2c1` [Cpd 16, Cyclohexylmethyl-[4-(1H-pyrrolo[2,3-b]pyridin-3-yl)-pyrimidin-2-yl]-amine], the IC50 (commonly the concentration needed to halve the response being measured) in experiment [1] turned out to be 0.151 µM; in experiment [2], 10 µM; in experiment [3], 0.636 µM; in experiment [4], 0.368 µM; in experiment [5], 0.41 µM; in experiment [6], 0.604 µM.

Regarding `CC(=O)n1cc(-c2ccnc(NC3CCCCC3)n2)c2cccnc21` [Cpd 68, Cyclohexyl-[4-(1-acetyl-1H-pyrrolo[2,3-b]pyridin-3-yl)pyrimidin-2-yl]-amine], the IC50 in experiment [1] turned out to be 0.0308 µM; in experiment [2] it was 1 µM; in experiment [3] it was 0.32 µM; in experiment [4], 0.023 µM; in experiment [5], 0.0129 µM; in experiment [6], 0.0317 µM.

Take `NC1CCC(Nc2nccc(-c3c[nH]c4ncccc34)n2)CC1` (mixture of isomers) [Cpd 43, (4-Aminocyclohexyl)-[4-(1H-pyrrolo[2,3-b]pyridin-3-yl)-pyrimidin-2-yl]-amine]: the IC50 was determined as 0.0066 µM in experiment [1]; 2.78 µM in experiment [2]; 0.262 µM in experiment [3]; 0.00292 µM in experiment [4]; 0.00297 µM in experiment [5]; 0.00242 µM in experiment [6].

For the compound `c1cnc2[nH]cc(-c3ccnc(NC4CCCCC4)n3)c2c1` [Cpd 13, Cyclohexyl-[4-(1H-pyrrolo[2,3-b]pyridin-3-yl)-pyrimidin-2-yl]-amine], the IC50 in experiment [1] is 0.014 µM; in experiment [2], 2.08 µM; in experiment [3], 0.263 µM; in experiment [4], 0.031 µM; in experiment [5] it was 0.032 µM; in experiment [6] it was 0.033 µM.

As to `O[C@H]1CC[C@H](Nc2nccc(-c3c[nH]c4ncccc34)n2)CC1` [Cpd 18, trans-4-[4-(1H-Pyrrolo[2,3-b]pyridin-3-yl)-pyrimidin-2-ylamino]-cyclohexanol], the IC50 worked out at 0.0076 µM in experiment [1]; 1.79 µM in experiment [2]; 0.335 µM in experiment [3]; 0.00161 µM in experiment [4]; 0.00225 µM in experiment [5]; 0.00177 µM in experiment [6].

Take `Cc1cc(CCN2CCN(C)CC2)ccc1Nc1nccc(-c2c[nH]c3ncccc23)n1` [Cpd 51, {4-[2-(4-Methylpiperizin-1-yl)ethyl]-2-methylphenyl}-[4(1H-pyrrolo[2,3-b]pyridin-3-yl)-pyrimidin-2-yl]-amine]: the IC50 in experiment [1] is 0.0026 µM; in experiment [2] it was 1.25 µM; in experiment [3], 0.895 µM; in experiment [4], 0.00466 µM; in experiment [5], 0.00361 µM; in experiment [6] it was 0.00352 µM.

With `OCCn1cc(-c2ccnc(N[C@H]3CC[C@H](O)CC3)n2)c2cccnc21` [Cpd 72, trans-4-{4-[1-(2-Hydroxyethyl)-1H-pyrrolo[2,3-b]pyridin-3-yl]-pyrimidin-2-ylamino}-cyclohexanol], the IC50 was 0.6 µM in experiment [1]; 10 µM in experiment [2]; 6.06 µM in experiment [3]; 0.144 µM in experiment [4]; 0.077 µM in experiment [5]; 0.165 µM in experiment [6].

As to `CC1CCC(Nc2nccc(-c3c[nH]c4ncccc34)n2)CC1` (mixture of isomers) [Cpd 17, (4-Methyl-cyclohexyl)-[4-(1H-pyrrolo[2,3-b]pyridin-3-yl)-pyrimidin-2-yl]-amine], the IC50 in experiment [1] was found to be 0.012 µM; in experiment [2], 3.81 µM; in experiment [3] it was 0.312 µM; in experiment [4], 0.0243 µM; in experiment [5], 0.0208 µM; in experiment [6], 0.014 µM.

For the compound `CC(=O)N1CCC(Nc2nccc(-c3c[nH]c4ncccc34)n2)CC1` [Cpd 64, 1-{4-[4-(1H-pyrrolo[2,3-b]pyridin-3-yl)pyrimidin-2-ylamino]piperidin-1-yl}ethanone], the IC50 in experiment [1] worked out at 0.0498 µM; in experiment [2] it was 10 µM; in experiment [3], 1.68 µM; in experiment [4], 0.136 µM; in experiment [5] it was 0.0689 µM; in experiment [6], 0.155 µM.

For `OCC[C@H]1CC[C@H](Nc2nccc(-c3c[nH]c4ncccc34)n2)CC1` [Cpd 77, trans-2-{4-[4-(1H-pyrrolo[2,3-b]pyridin-3-yl]-pyrimidin-2-ylamino]-cyclohexyl}-ethanol], the IC50 in experiment [1] was 0.0028 µM; in experiment [2], 3.57 µM; in experiment [3], 0.374 µM; in experiment [4] it was 0.00598 µM; in experiment [5], 0.00762 µM; in experiment [6], 0.00616 µM.

With `Oc1ccc(Nc2nccc(-c3c[nH]c4ncccc34)n2)cc1` [Cpd 39, (4-Hydroxyphenyl)-[4-(1H-pyrrolo[2,3-b]pyridin-3-yl)-pyrimidin-2-yl]-amine], the IC50 in experiment [1] came to 0.168 µM; in experiment [2], 1.66 µM; in experiment [3], 0.735 µM; in experiment [4] it was 0.384 µM; in experiment [5], 0.242 µM; in experiment [6] it was 0.862 µM.

`CN1CCC(Nc2nccc(-c3c[nH]c4ncccc34)n2)CC1` [Cpd 61, (1-Methylpiperidin-4-yl)-[4-(1H-pyrrolo[2,3-b]pyridin-3-yl)-pyrimidin-2-yl]-amine]: the IC50 in experiment [1] is 0.129 µM; in experiment [2] it was 10 µM; in experiment [3], 2.25 µM; in experiment [4], 0.026 µM; in experiment [5], 0.0153 µM; in experiment [6], 0.0214 µM.

As to `CCc1ccccc1Nc1nccc(-c2c[nH]c3ncccc23)n1` [Cpd 32, (2-Ethylphenyl)-[4-(1H-pyrrolo[2,3-b]pyridin-3-yl)-pyrimidin-2-yl]-amine], the IC50 was 0.068 µM in experiment [1]; 1.47 µM in experiment [2]; 0.396 µM in experiment [3]; 0.292 µM in experiment [4]; 0.254 µM in experiment [5]; 0.217 µM in experiment [6].
